Data on eight compounds can be found in ChEMBL document CHEMBL3593172, “4-(N-Phenyl-N'-substituted benzenesulfonyl)-6-(4-hydroxyphenyl)quinolines as inhibitors of mammalian target of rapamycin” (Bioorg Med Chem, 2015).

What is called IC50 is the concentration that gives 50% inhibition. Lower therefore signals higher potency.

The test system of assay [1] is PC-3. Briefly: Cytotoxicity against human PC3 cells assessed as growth inhibition at 30 uM after 24 to 48 hrs by MTT assay relative to control. It is filed as functional. The settings on record: read-out: GI.
The nature of assay [2]: Cytotoxicity against human MIAPaCa2 cells assessed as growth inhibition at 30 uM after 24 to 48 hrs by MTT assay relative to control. Format: functional. Conditions: MIA PaCa-2, read-out: GI. On the technique in general: Tetrazolium assays rely on reduction of a dye to a coloured formazan, in cell work by metabolically active cells.
Assay [3] has as its system PC-3. Briefly: cells. Conditions: Homo sapiens, PC-3, 48 h.
Description: Cytotoxicity against human PC3 cells assessed as inhibition of cell proliferation after 48 hrs by MTT assay
Assay [4] concerns HL-60. Briefly: cells. Conditions: Homo sapiens, HL-60, 48 h.
Description: Cytotoxicity against human HL60 cells assessed as inhibition of cell proliferation after 48 hrs by MTT assay
The test system of assay [5] is HCT-116. In words: Cytotoxicity against human HCT116 cells assessed as growth inhibition at 30 uM after 24 to 48 hrs by MTT assay relative to control. It is filed as functional. Conditions: read-out: GI.
The subject of assay [6] is HCT-116. In words: cells. Conditions: Homo sapiens, HCT-116, 48 h.
Description: Cytotoxicity against human HCT116 cells assessed as inhibition of cell proliferation after 48 hrs by MTT assay
Assay [7] in a line: cells. The settings on record: Homo sapiens, MIA PaCa-2, 48 h.
Description: Cytotoxicity against human MIAPaCa2 cells assessed as inhibition of cell proliferation after 48 hrs by MTT assay
Assay [8] has as its system HepG2. In words: cells. The settings on record: Homo sapiens, HepG2, 48 h.
Description: Cytotoxicity against human HepG2 cells assessed as inhibition of cell proliferation after 48 hrs by MTT assay
Assay [9] is described as follows: Cytotoxicity against human MIAPaCa2 cells assessed as growth inhibition at 10 uM after 24 to 48 hrs by MTT assay relative to control. Format: functional. Conditions: MIA PaCa-2, read-out: GI.
Assay [10] has as its system PC-3. In words: Cytotoxicity against human PC3 cells assessed as growth inhibition at 10 uM after 24 to 48 hrs by MTT assay relative to control. It is filed as functional. The settings on record: read-out: GI.
Assay [11] concerns PC-3. In words: Cytotoxicity against human PC3 cells assessed as growth inhibition at 100 uM after 24 to 48 hrs by MTT assay relative to control. It is filed as functional. The settings on record: read-out: GI.
Assay [12] concerns HCT-116. In words: Cytotoxicity against human HCT116 cells assessed as growth inhibition at 10 uM after 24 to 48 hrs by MTT assay relative to control. Conditions: read-out: GI. Format: functional.
Assay [13] has as its system HL-60. In words: Cytotoxicity against human HL60 cells assessed as growth inhibition at 10 uM after 24 to 48 hrs by MTT assay relative to control. Format: functional. Conditions: read-out: GI.
Assay [14] relates to HepG2. Briefly: Cytotoxicity against human HepG2 cells assessed as growth inhibition at 30 uM after 24 to 48 hrs by MTT assay relative to control. Conditions: read-out: GI. It is filed as functional.
Assay [15] concerns HepG2. In words: Cytotoxicity against human HepG2 cells assessed as growth inhibition at 100 uM after 24 to 48 hrs by MTT assay relative to control. Conditions: read-out: GI. Format: functional.
A short description of assay [16]: Cytotoxicity against human MIAPaCa2 cells assessed as growth inhibition at 100 uM after 24 to 48 hrs by MTT assay relative to control. Conditions: MIA PaCa-2, read-out: GI. Format: functional.
Assay [17] concerns HepG2. In words: Cytotoxicity against human HepG2 cells assessed as growth inhibition at 10 uM after 24 to 48 hrs by MTT assay relative to control. Format: functional. The settings on record: read-out: GI.
The subject of assay [18] is HCT-116. Briefly: Cytotoxicity against human HCT116 cells assessed as growth inhibition at 100 uM after 24 to 48 hrs by MTT assay relative to control. It is filed as functional. The settings on record: read-out: GI.
For assay [19], the system named is HL-60. In words: Cytotoxicity against human HL60 cells assessed as growth inhibition at 30 uM after 24 to 48 hrs by MTT assay relative to control. Format: functional. Conditions: read-out: GI.
For assay [20], the system named is HL-60. Briefly: Cytotoxicity against human HL60 cells assessed as growth inhibition at 100 uM after 24 to 48 hrs by MTT assay relative to control. It is filed as functional. Conditions: read-out: GI.

Molecules are shown by their SMILES. Where only a bound is given, the exact number is not on record here.

`O=S(=O)(c1ccc(F)cc1F)N(c1ccccc1)c1ccnc2ccc(-c3ccc(O)cc3)cc12`: the inhibition of growth at 30 µM in assay [1] stood at 61%; in assay [2], 84%; in assay [5] it was 20%; in assay [14], 89%; in assay [19], 88%. The IC50 in assay [3] is 25 µM; in assay [4], less than 10 µM; in [6], 80 µM; in assay [7] it was less than 10 µM; in [8], less than 10 µM. Also, the inhibition of growth at 10 µM in [9] is 80%; in assay [10], 26%; in [12] it was 2%; in assay [13], 87%; in assay [17], 87%. The inhibition of growth at 100 µM in [11] came to 73%; in assay [15], 90%; in [16], 87%; in assay [18], 58%; in assay [20] it was 89%.
For `O=C(c1ccccc1F)N(c1ccccc1)c1ccnc2ccc(-c3ccc(O)cc3)cc12`, the inhibition of growth at 30 µM was determined as 65% in assay [1]; 90% in assay [2]; 32% in assay [5]; 84% in assay [14]; 93% in assay [19]. Moreover, the IC50 in assay [3] is 22 µM; in assay [4], less than 10 µM; in assay [6], 52 µM; in assay [7], 15 µM; in assay [8] it was 18 µM. Further, the inhibition of growth at 10 µM is 36% in assay [9]; 27% in assay [10]; 26% in [12]; 55% in assay [13]; 22% in assay [17]. For the same compound, the inhibition of growth at 100 µM in assay [11] was determined as 88%; in assay [15] it was 87%; in assay [16] it was 90%; in assay [18], 88%; in assay [20], 94%.
For `O=S(=O)(c1ccccc1)N(c1ccccc1)c1ccnc2ccc(-c3ccc(O)cc3)cc12`, the inhibition of growth at 30 µM worked out at 61% in assay [1]; 84% in assay [2]; 57% in assay [5]; 90% in [14]; 89% in assay [19]. The IC50 in [3] was 25 µM; in assay [4], less than 10 µM; in assay [6] it was 28 µM; in [7], less than 10 µM; in [8], 12 µM. Also, the inhibition of growth at 10 µM came to 80% in assay [9]; 15% in assay [10]; 8% in assay [12]; 87% in [13]; 40% in [17]. The inhibition of growth at 100 µM in assay [11] is 76%; in assay [15], 91%; in assay [16], 87%; in [18], 89%; in assay [20], 91%.
Take `O=C(c1cccnc1Cl)N(c1ccccc1)c1ccnc2ccc(-c3ccc(O)cc3)cc12`: the inhibition of growth at 30 µM stood at 90% in assay [1]; 89% in assay [2]; 88% in assay [5]; 87% in [14]; 94% in assay [19]. For the same compound, the IC50 in assay [3] was 11 µM; in assay [4], less than 10 µM; in assay [6], 16 µM; in [7], less than 10 µM; in assay [8], 19 µM. The inhibition of growth at 10 µM in assay [9] amounted to 69%; in assay [10] it was 47%; in [12], 29%; in [13], 92%; in [17] it was 19%. For the same compound, the inhibition of growth at 100 µM was determined as 90% in [11]; 88% in [15]; 89% in assay [16]; 89% in [18]; 95% in assay [20].
On to `Cc1c(C)c(C)c(S(=O)(=O)N(c2ccccc2)c2ccnc3ccc(-c4ccc(O)cc4)cc23)c(C)c1C`, for which the inhibition of growth at 30 µM in assay [1] worked out at 14%; in assay [2] it was 17%; in assay [5], 15%; in [14], 2%; in assay [19] it was 8%. For the same compound, the IC50 in [3], in assay [4], in assay [6], in assay [7] and in assay [8] was more than 100 µM throughout. Further, the inhibition of growth at 10 µM in assay [9] came out at 16%; in assay [10], 12%; in [12], 14%; in [13] it was 5%; in [17], 1%. The inhibition of growth at 100 µM in assay [11] is 15%; in [15], 10%; in assay [16], 22%; in [18], 24%; in assay [20] it was 15%.
For `N#Cc1ccc(S(=O)(=O)N(c2ccccc2)c2ccnc3ccc(-c4ccc(O)cc4)cc23)cc1`, the inhibition of growth at 30 µM in assay [1] was determined as 10%; in assay [2], 21%; in assay [5], 21%; in assay [14], 1%; in assay [19], 30%. Moreover, the IC50 in assay [3] was more than 100 µM; in assay [4], 58 µM; in assay [6], more than 100 µM; in [7] it was 78 µM; in assay [8], more than 100 µM. The inhibition of growth at 10 µM in assay [9] turned out to be 16%; in [10], 9%; in [12], 5%; in [13] it was 12%; in assay [17] it was 1%. Besides, the inhibition of growth at 100 µM in assay [11] came out at 19%; in assay [15] it was 34%; in [16], 64%; in assay [18], 36%; in [20] it was 78%.
As for `COc1ccc(S(=O)(=O)N(c2ccccc2)c2ccnc3ccc(-c4ccc(O)cc4)cc23)cc1`, the inhibition of growth at 30 µM in [1] came to 39%; in assay [2] it was 81%; in [5] it was 39%; in assay [14], 78%; in assay [19], 87%. The half-inhibitory concentration (IC50) in assay [3] is 65 µM; in assay [4], less than 10 µM; in assay [6], 50 µM; in assay [7], less than 10 µM; in assay [8] it was 20 µM. Also, the inhibition of growth at 10 µM in assay [9] came to 63%; in [10] it was 15%; in [12], 10%; in assay [13], 63%; in assay [17], 20%. Moreover, the inhibition of growth at 100 µM in [11] is 61%; in [15], 86%; in assay [16], 86%; in [18] it was 79%; in assay [20] it was 89%.
Take `O=S(=O)(c1ccc2c(c1)OCCO2)N(c1ccccc1)c1ccnc2ccc(-c3ccc(O)cc3)cc12`: the inhibition of growth at 30 µM in assay [1] is 38%; in assay [2], 84%; in assay [5], 26%; in assay [14] it was 87%; in assay [19], 90%. Besides, the IC50 is 65 µM in assay [3]; less than 10 µM in assay [4]; 70 µM in assay [6]; less than 10 µM in assay [7]; 12 µM in assay [8]. Besides, the inhibition of growth at 10 µM in assay [9] is 79%; in [10], 27%; in [12] it was 17%; in assay [13] it was 87%; in assay [17], 46%. The inhibition of growth at 100 µM in assay [11] was found to be 62%; in assay [15], 88%; in assay [16] it was 86%; in assay [18] it was 68%; in assay [20], 90%.
